This is an account of results in patent US8067600B2, “Histone deacetylase inhibitors and methods of use thereof” (Georgetown University, priority 2003, dated 2011).

Where two headings read alike, the source gives them in different places.

In data set [1] the test system is HDAC. The data set is described as follows: HDAC activity inhibition assay, HeLa nuclear extracts, Fluor de Lys substrate. In kind it is biochemical. Particulars: HeLa nuclear extract, 37° C., 15 min, read-out: 50% HDAC activity inhibition. As for the experimental part:
For each test sample the corresponding assay reaction was performed in triplicate. […] For the selected Compounds of the Invention, samples at the following concentrations were prepared and tested: 1 μM, 5 μM, 10 μM, 100 μM and 1 mM.

In data set [2] the test system is SQ-20B cells. The data set is described as follows: Radiation clonogenic survival assay (radiation sensitization). The data set is classed as cell-based, human. Further details: α / β: unit not given here. Particulars: drug at IC50 concentration for 24 h, then graded gamma radiation; for α / β: linear quadratic model; for Do in SQ-20B Cells (Gy): single hit multi-target model, Do without sensitizer 2.4 Gy. As for the experimental part: To test the ability of the Compounds of the Invention to sensitize cells to radiation, we used radiation resistant squamous carcinoma cell line, SQ-20B, for initial radiosensitization experiments. SQ-20B is extremely resistant to ionizing radiation (Do=2.4 Gy in the absence of radiation sensitizers). Briefly, logarithmically growing SQ-20B cells were treated with a drug compound at the IC50 concentration (determined using the clonogenic survival assay illustrated in Example 21) for 24 h and then exposed to graded dose of gamma radiation. Clonogenic survivals were determined and fit to the single hit multi-target and the linear quadratic models.
The shape of radiation survival curves are determined by using either the single-hit multitarget model or the linear-quadratic model. The multitarget model is used to describe the radiation sensitivity of cells defined by the terminal slope of the radiation survival curve, which is referred to as Do. The steeper the slope, the smaller is the value of Do and the more radiation sensitive is the cellular response. Alternatively, a less steep slope results in a larger Do and a more resistant radiation response. The linear-quadratic model is also used to describe the radiation sensitivity defined by two components to cell killing by radiation: one is proportional to dose (αD) and the other is proportional to the square of the dose (βD^2). Thus, the dose at which the linear and quadratic components are equal is the ratio α/β.
Shown in Table 4 are the results of selected compounds of the invention in the radiation clonigenic survival assay.

In data set [3] the test system is SQ-20B cells.
Method: (§3) For each concentration indicated, individual T25 flasks were seeded with the following number of SQ-20B cells: for no drug, 10 μM and 50 μM drug concentrations, separate T25 flasks were each seeded with 100 cells; for 100 μM and 300 μM drug concentrations, separate T25 flasks were each seeded with 200 cells each; and for 500 μM and 1 mM drug concentrations, separate T25 flasks were each seeded with 300 cells each. A Levy Hemacytometer (Hausser Scientific) was used to count the cells in stock suspension. Serial dilutions of stock suspension were performed to obtain the proper concentration for cell seeding. To conduct the cytotoxicity study the SQ20B cells were first seeded under the appropriate treatment specifications and allowed to settle for 24 hr in a tissue culture incubator set at 37° C. and 5% CO2. Cells were treated with their corresponding drugs for 24 hr and then washed with three rinses of PBS (10 mL per rinse) and provided with new media. The cells were then further incubated for colony formation and the colonies were stained using a staining solution consisting of: 5 g Crystal Violet, 700 mL methanol and 300 mL dH2O. The flasks were then destained with three rinses in cold water. After the third rinse the stained colonies were counted and the corresponding IC50 for each drug was calculated.
Data set [4] deals with HDAC. The data set is described as follows: In vitro HDAC inhibitory activity using fluor-Lys as the substrate (BIOMOL). The data set is classed as biochemical. Particulars: for IC50: read-out: 50% HDAC Activity Inhibition. The method, then: The in vitro HDAC inhibitory activity of these compounds was determined by using fluor-Lys as the substrate (BIOMOL).
Data set [5] deals with human breast cancer cells (MCF-7). The data set is described as follows: Cytotoxicity following 24 h exposure, MCF-7 (FIG. 2). In kind it is cell-based. The note with it: breast carcinoma cells (MCF-7). As for the experimental part:
(§1) FIG. 2 depicts graphically the cytotoxicities of various compounds of the invention following 24 h exposure of human breast cancer cells (MCF-7) and squamous cancer cells (SQ-20B).
(§2) To test the biological effects of the compounds of this and the previous Example, cytotoxicities were determined following 24 h exposure of human breast cancer cells (MCF-7) and squamous cancer cells (SQ-20B) to three compounds (4g, 4c and 10a). FIG. 2.

The subject of data set [6] is squamous cancer cells (SQ-20B). The data set is described as follows: Cytotoxicity following 24 h exposure, SQ-20B (FIG. 2). The data set is classed as cell-based, human. Particulars: squamous carcinoma cells (SQ-20B). The method, then: as §1, §2
Data set [7] can be described thus: Cytotoxicity in SQ-20B cells (colony formation). Particulars: human, SQ-20B squamous carcinoma cells.
Method: as §3
In data set [8] the test system is SQ-20B cells. The data set is described as follows: Cytotoxicity in SQ-20B cells (colony formation). The note with it: read-out: Cytotoxicity in SQ-20B cells (IC50); 24 hr drug treatment, colony formation.
Method: as §3

As to “4-[3-(4-Dimethylamino-benzyl)-ureido]-N-hydroxy-butyramide [Compound 2]”, the IC50 with HDAC [1] was 800 nM. In the data set with SQ-20B cells [2], the α stood at 0.1681, the β was 0.03301 and the “Do in SQ-20B Cells (Gy)” value worked out at 1.62 Gy. This compound showed an IC50 in the data set on SQ-20B cells [3] of 50000 nM.

Consider `O=C(CS)NCCCCCCNC(=O)c1ccccc1` [Compound 21], for which, in the data set on HDAC [1], the IC50 was found to be 1600 nM.

Consider `CN(C)c1ccc(C(=O)NCCCCCCNC(=O)CS)cc1` [Compound 4d, 4-Dimethylamino-N-[6-(2-mercapto-acetylamino)-hexyl]-benzamide], for which the IC50 in the data set on HDAC [4] (fluor-Lys substrate (BIOMOL)) is 450 nM.

As to `CN(C)c1ccc(C(=O)NCc2ccc(CNC(=O)CS)cc2)cc1` [Compound 4k, 4-Dimethylamino-N-{4-[(2-mercapto-acetylamino)-methyl]-benzyl}-benzamide], in the data set on HDAC [4] (fluor-Lys substrate (BIOMOL)), the “in vitro HDAC inhibitory activity (in words)” value is reported as “comparable HDAC inhibitory activity” and the IC50 turned out to be 200 nM.

Take `CN(C)c1ccc(C(=O)NCCCCNC(=O)CS)cc1` [Compound 4b, 4-Dimethylamino-N-[4-(2-mercapto-acetylamino)-butyl]-benzamide]: the IC50 in the data set on HDAC [4] (fluor-Lys substrate (BIOMOL)) was found to be 4700 nM.

For the compound `O=C(CS)NCCCCNC(=O)c1ccc(-c2ccccc2)cc1` [Compound 4f, Biphenyl-4-carboxylic acid [4-(2-mercapto-acetylamino)-butyl]-amide], in the data set with HDAC [4] (fluor-Lys substrate (BIOMOL)), the IC50 is 13000 nM.

For the compound `CN(C)c1ccc(C(=O)NCCCCCNC(=O)CS)cc1` [Compound 4c, 4-Dimethylamino-N-[5-(2-mercapto-acetylamino)-pentyl]-benzamide], in the data set with HDAC [4], the IC50 came to 200 nM. The “cytotoxicities (in words)” value in data set [5] and in data set [6] was “dose-dependent cytotoxicities” in each case.

Regarding `O=C(CCCCCNC(=O)NC12CC3CC(CC(C3)C1)C2)NO` [Compound 8, 6-(3-Adamantan-1-yl-ureido)-hexanoic Acid Hydroxyamide], the IC50 with HDAC [1] was determined as 800 nM. Moreover, in the data set with SQ-20B cells [2], the α stood at 0.2378, the β is 0.02282 and the “Do in SQ-20B Cells (Gy)” value was 1.78 Gy. The compound further displayed an IC50 at 24 h in data set [7] of 50000 nM.

On to `O=C(CS)NCCCCCNC(=O)Nc1ccccc1` [Compound 9, 2-Mercapto-N-[5-(3-phenyl-ureido)-pentyl]-acetamide], for which the IC50 with HDAC [1] was 900 nM.

With `CN(C)c1ccc(CNC(=O)NCCCCCCC(=O)NO)cc1` [Compound 5, 7-[3-(4-dimethylamino-benzyl)-ureido]-heptanoic Acid Hydroyxamide], the IC50 in the data set with HDAC [1] turned out to be 1000 nM. For the same compound, in the data set with SQ-20B cells [2], the α was determined as 0.1978, the β turned out to be 0.02561 and the “Do in SQ-20B Cells (Gy)” value stood at 1.78 Gy. In addition, in data set [7], the IC50 at 24 h came out at 50000 nM.

On to `O=C(CS)NCCCCCCNC(=O)c1ccccc1` [Compound 4i, N-[6-(2-Mercapto-acetylamino)-hexyl]-benzamide], for which the IC50 in the data set on HDAC [4] (fluor-Lys substrate (BIOMOL)) was 900 nM.

For `O=C(CS)NCCCCCNC(=O)c1ccc(-c2ccccc2)cc1` [Compound 4g, Biphenyl-4-carboxylic acid [5-(2-mercapto-acetylamino)-pentyl]-amide], the IC50 with HDAC [4] (fluor-Lys substrate (BIOMOL)) turned out to be 550 nM.

Consider `O=C(CS)NCCCCCCNC(=O)Nc1ccccc1` [Compound 10, 2-Mercapto-N-[6-(3-phenyl-ureido)-hexyl]-acetamide], for which the IC50 in the data set with HDAC [1] came to 900 nM. Further, in the data set with SQ-20B cells [2], the α stood at 0.1135, the β is reported as 0.01558 and the “Do in SQ-20B Cells (Gy)” value is 2.54 Gy. The same compound came in with an IC50 at 24 h in data set [7] of 50000 nM.

`O=C(CS)NCCCCCNC(=O)c1ccc(-c2ccccc2)cc1` [Compound 23]: the IC50 with HDAC [1] was 750 nM.

Regarding `O=C(CCCCCCC(=O)Nc1ccccc1)NO` [SAHA, suberoylanilide hydroxamic acid, reference compound], in the data set on SQ-20B cells [2], the α stood at 0.01197, the β was determined as 0.03152 and the “Do in SQ-20B Cells (Gy)” value is listed as 1.88 Gy.

Take `O=C(CS)NCCCCCNC(=O)NCc1ccccc1` [Compound 11, N-[5-(3-benzyl-ureido)-pentyl]-2-mercapto-acetamide]: the IC50 in the data set with HDAC [1] is 1600 nM.

As to `O=C(CS)NCCCCCNC(=O)c1ccccc1` [Compound 4h, N-[5-(2-Mercapto-acetylamino)-pentyl]-benzamide], the IC50 with HDAC [4] (fluor-Lys substrate (BIOMOL)) was 1100 nM.

With `O=C(CS)NCCCNC(=O)c1ccc(-c2ccccc2)cc1` [Compound 4e, Biphenyl-4-carboxylic acid [3-(2-mercapto-acetylamino)-propyl]-amide], the IC50 in the data set on HDAC [4] (fluor-Lys substrate (BIOMOL)) turned out to be 800 nM.

Consider “5-[3-(4-dimethylamino-benzyl)-ureido]-pentanoic Acid Hydroxyamide [Compound 3]”, for which, in the data set with HDAC [1], the IC50 turned out to be 800 nM. Moreover, in the data set on SQ-20B cells [2], the α came to 0.2420, the β is reported as 0.02486 and the “Do in SQ-20B Cells (Gy)” value came to 1.72 Gy. For the same compound, in the data set with SQ-20B cells [8], the IC50 turned out to be 25000 nM.

As for `CC(/C=C/C(=O)NO)=C\[C@@H](C)C(=O)c1ccc(N(C)C)cc1` [TSA, 7-(4-(dimethylamino)phenyl)-n-hydroxy-4,6-dimethyl-7-oxo-2,4-heptadienamide, reference compound], in the data set on SQ-20B cells [2], the α is listed as 0.1260, the β is 0.03059 and the “Do in SQ-20B Cells (Gy)” value is listed as 1.65 Gy. The same compound showed an IC50 at 24 h in data set [7] of 200 nM.

Regarding `CN(C)c1ccc(C(=O)NCCCCCNC(=O)CS)cc1` [Compound 24], the IC50 in the data set with HDAC [1] worked out at 800 nM.

For the compound `CN(C)c1ccc(C(=O)NCCCCCCNC(=O)CS)cc1` [Compound 22], in the data set on HDAC [1], the IC50 stood at 800 nM.

With `O=C(CS)NCCCCCCNC(=O)CS` [Compound 4j, 2-Mercapto-N-[6-(2-mercapto-acetylamino)-hexyl]-acetamide], in the data set with HDAC [4] (fluor-Lys substrate (BIOMOL)), the IC50 turned out to be 10000 nM.

Turning to `O=C(CS)NCCCCCNC(=O)c1ccccc1` [Compound 25], in the data set on HDAC [1], the IC50 was found to be 1000 nM.

With `CN(C)c1ccc(CNC(=O)NCCCCCCCC(=O)NO)cc1` [Compound 6, 8-[3-(4-dimethylamino-benzyl)-ureido]-octanoic Acid Hydroxyamide], the IC50 in the data set with HDAC [1] amounted to 700 nM. In the data set with SQ-20B cells [2], the α was 0.2846, the β amounted to 0.01761 and the “Do in SQ-20B Cells (Gy)” value was 1.94 Gy. Besides, the IC50 at 24 h in data set [7] came to 50000 nM.

`O=C(CS)NCCCCCNC(=O)c1cnc2ccccc2c1` [Compound 4l, Quinoline-3-carboxylic acid [5-(2-mercapto-acetylamino)-pentyl]-amide]: the IC50 in the data set with HDAC [4] (fluor-Lys substrate (BIOMOL)) is 250 nM.

With `O=C(CS)NCCCCCNC(=O)c1cccc2cccnc12` [Compound 4m, Quinoline-8-carboxylic acid [5-(2-mercapto-acetylamino)-pentyl]-amide], the IC50 in the data set with HDAC [4] (fluor-Lys substrate (BIOMOL)) was 400 nM.

In the case of `CN(C)c1ccc(NC(=O)NCCCCCCC(=O)NO)cc1` [Compound 7, 7-[3-(4-dimethylamino-phenyl)-ureido]-heptanoic Acid Hydroxyamide], the IC50 in the data set with HDAC [1] was 700 nM. Also, in the data set on SQ-20B cells [2], the α was determined as 0.1391, the β is reported as 0.03335 and the “Do in SQ-20B Cells (Gy)” value is reported as 1.57 Gy. Moreover, the IC50 at 24 h in data set [7] came out at 10000 nM.

For `CN(C)c1ccc(C(=O)NCCCNC(=O)CS)cc1` [Compound 4a, 4-Dimethylamino-N-[3-(2-mercapto-acetylamino)-propyl]-benzamide], in the data set with HDAC [4] (fluor-Lys substrate (BIOMOL)), the IC50 stood at 800 nM.
